Earlier results, collected in US20130122119A1, “PHYLLANTHUS AMARUS COMPOSITIONS AND METHOD OF EXTRACTING SAME” (NATREON, INC., priority 2011, published 2013).

Columns and labels:
TNF-α release = settings: read-out: IC50 of TNF-α release inhibition
[1] = test system: hepatitis B surface antigen (HBsAg) secretion; settings: non-cytotoxic concentration of 200 μg/ml
mouse skin tumors = settings: week 20, treatment prior to okadaic acid
[2] = geraniin isolated from Phyllanthus sellowianus
[3] = test system: hepatitis B e-antigen (HBeAg) secretion; settings: non-cytotoxic concentration of 200 μg/ml

Row | Molecule | IC50 (TNF-α release) [µM] | inhibition of HBsAg secretion [1] | average numbers of tumor per mouse (mouse skin tumors; 3.8 without treatment) | percentage of tumor-bearing mice (mouse skin tumors; 80.0% without treatment) [%] | analgesic potency at the ID50 level (micromol/kg) relative to aspirin and acetaminophen [2] | inhibition of HBeAg secretion [3] [%]
1 | O=C(O[C@@H]1O[C@@H]2COC(=O)c3cc(O)c(O)c(O)c3-c3c(cc(O)c(O)c3O)C(=O)O[C@H]([C@H]1O)[C@@H]2O)c1cc(O)c(O)c(O)c1 [Corilagin, beta-1-O-galloyl-3,6-(R)-hexahydroxydiphenoyl-D-glucose] | 76 | – | – | – | – | –
2 | O=C1OC2C3COC(=O)c4cc(O)c(O)c(O)c4-c4c(cc(O)c(O)c4O)C(=O)OC2C(OC(=O)c2cc(O)c(O)c4c2C2C1=CC(=O)C(O)(O4)C2(O)O)C(OC(=O)c1cc(O)c(O)c(O)c1)O3 [Geraniin, beta-D-Glucopyranose, cyclic 2-7:4-5-(3,6-dihydro-2,9,10,11,11-pentahydroxy-3-oxo-2,6-methano-2H-1-benzoxocin-5,7-dicarboxylate) cyclic 3,6-(4,4′,5,5′,6,6′-hexahydroxy(1,1′-biphenyl)-2,2′-dicarboxylate) 1-(3,4,5-trihydroxybenzoate)] | 43 | more than 85.8% | 1.1 | 40.0 | about six- to seven-fold more potent | > 63.7
3 | (−)-epigallocatechin gallate | 26 | – | – | – | – | –
